18 compounds from ChEMBL document CHEMBL4190397, “Design and Synthesis of Novel and Selective Glycine Transporter-1 (GlyT1) Inhibitors with Memory Enhancing Properties” (J Med Chem, 2018) can be followed below.

The structures appear in SMILES notation.

Data set [1] concerns the target T1, Sodium- and chloride-dependent glycine transporter 1 (Homo sapiens, UniProt P48067).
T1 sequence (P48067 whole entry): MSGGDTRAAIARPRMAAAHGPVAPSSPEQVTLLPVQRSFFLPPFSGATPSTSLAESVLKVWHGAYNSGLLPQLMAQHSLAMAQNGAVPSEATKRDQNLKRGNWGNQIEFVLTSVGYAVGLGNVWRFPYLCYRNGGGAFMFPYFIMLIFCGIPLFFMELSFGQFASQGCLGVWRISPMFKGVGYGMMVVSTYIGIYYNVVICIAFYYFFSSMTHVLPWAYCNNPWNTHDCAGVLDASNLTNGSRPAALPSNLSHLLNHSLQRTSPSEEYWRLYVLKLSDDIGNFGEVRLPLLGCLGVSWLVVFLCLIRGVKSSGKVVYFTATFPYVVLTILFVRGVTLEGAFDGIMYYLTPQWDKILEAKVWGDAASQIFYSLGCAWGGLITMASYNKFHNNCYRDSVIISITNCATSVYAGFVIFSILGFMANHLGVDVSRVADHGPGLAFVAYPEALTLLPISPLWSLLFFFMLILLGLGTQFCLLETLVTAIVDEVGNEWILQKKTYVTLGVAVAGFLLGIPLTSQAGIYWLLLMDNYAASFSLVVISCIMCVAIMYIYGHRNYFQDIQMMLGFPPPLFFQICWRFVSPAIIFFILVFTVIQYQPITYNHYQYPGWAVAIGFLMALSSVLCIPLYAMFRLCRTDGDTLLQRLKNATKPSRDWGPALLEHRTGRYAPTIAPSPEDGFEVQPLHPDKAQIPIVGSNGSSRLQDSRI
The data set can be described thus: Inhibition of recombinant human GlyT1c expressed in HEK293 cells assessed as reduction in [14C]glycine uptake after 2 hrs by microbeta scintillation counting method. Format: cell-based.

Data set [2] deals with T2, Sodium- and chloride-dependent glycine transporter 1 (Rattus norvegicus, UniProt P28572).
T2 sequence (P28572 whole entry): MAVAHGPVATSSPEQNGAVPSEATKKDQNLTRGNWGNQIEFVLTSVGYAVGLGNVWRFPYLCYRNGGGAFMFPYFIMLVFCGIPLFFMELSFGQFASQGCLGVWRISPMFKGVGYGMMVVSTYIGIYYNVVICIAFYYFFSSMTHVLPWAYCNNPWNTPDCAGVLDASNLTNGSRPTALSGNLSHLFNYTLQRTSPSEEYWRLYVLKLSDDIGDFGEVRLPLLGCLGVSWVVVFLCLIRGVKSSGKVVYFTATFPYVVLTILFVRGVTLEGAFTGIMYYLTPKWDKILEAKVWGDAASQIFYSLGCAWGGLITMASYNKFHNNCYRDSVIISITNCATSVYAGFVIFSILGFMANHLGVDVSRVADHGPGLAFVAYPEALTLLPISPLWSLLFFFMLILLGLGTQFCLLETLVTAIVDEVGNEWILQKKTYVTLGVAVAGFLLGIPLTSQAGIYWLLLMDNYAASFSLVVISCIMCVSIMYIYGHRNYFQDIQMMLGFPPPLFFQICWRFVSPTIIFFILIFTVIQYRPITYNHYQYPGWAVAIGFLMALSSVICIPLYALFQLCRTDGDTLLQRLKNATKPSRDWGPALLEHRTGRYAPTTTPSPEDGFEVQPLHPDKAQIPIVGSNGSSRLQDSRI
The data set can be described thus: Inhibition of GlyT1 in primary rat cortical neurons assessed as reduction in [14C]glycine uptake after 2 hrs by microbeta scintillation counting method.

For data set [3], the target named is T3, Sodium- and chloride-dependent glycine transporter 2 (Homo sapiens, UniProt Q9Y345).
T3 sequence (Q9Y345 whole entry): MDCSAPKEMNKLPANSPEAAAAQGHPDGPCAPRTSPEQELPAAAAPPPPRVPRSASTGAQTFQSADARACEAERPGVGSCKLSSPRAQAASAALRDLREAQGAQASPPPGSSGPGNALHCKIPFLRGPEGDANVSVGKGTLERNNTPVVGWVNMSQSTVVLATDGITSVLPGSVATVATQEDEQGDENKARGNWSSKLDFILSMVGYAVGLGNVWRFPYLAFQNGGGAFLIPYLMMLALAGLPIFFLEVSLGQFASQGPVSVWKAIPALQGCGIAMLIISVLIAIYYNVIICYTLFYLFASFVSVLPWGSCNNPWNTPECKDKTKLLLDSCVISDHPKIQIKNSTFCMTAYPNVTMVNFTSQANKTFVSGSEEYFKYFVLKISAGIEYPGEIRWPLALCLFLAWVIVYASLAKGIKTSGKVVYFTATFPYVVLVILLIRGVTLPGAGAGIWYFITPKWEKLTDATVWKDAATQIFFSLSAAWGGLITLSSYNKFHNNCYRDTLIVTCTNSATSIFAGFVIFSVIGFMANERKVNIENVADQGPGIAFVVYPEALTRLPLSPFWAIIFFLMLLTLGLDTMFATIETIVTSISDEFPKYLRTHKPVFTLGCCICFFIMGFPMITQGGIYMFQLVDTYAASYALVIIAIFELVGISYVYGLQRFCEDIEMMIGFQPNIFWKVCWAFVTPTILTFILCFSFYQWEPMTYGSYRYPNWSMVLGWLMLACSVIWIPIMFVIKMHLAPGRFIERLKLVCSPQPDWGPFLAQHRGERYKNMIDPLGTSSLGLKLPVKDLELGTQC
The data set can be described thus: Inhibition of recombinant human GlyT2 expressed in HEK293 cells assessed as reduction in [14C]glycine uptake after 2 hrs by microbeta scintillation counting method. Type of data set: cell-based.

The nature of data set [4]: Intrinsic clearance in human liver microsomes at 1 uM assessed per mg protein at 37 degC up to 60 mins in presence of NADPH by HPLC-MS analysis. Type of data set: ADME, microsome. The settings on record: read-out: CLH. A general note: Microsomes from liver hold many membrane-bound enzymes, among them those of drug oxidation.
Data set [5] has as its target Voltage-gated inwardly rectifying potassium channel KCNH2 (Homo sapiens, UniProt Q12809). The data set can be described thus: Inhibition of human ERG expressed in CHO cells at 10 nM to 10 uM at holding potential of -80 mV measured after 5 mins by QPatch automated patch clamp electrophysiology method. In general terms: In patch-clamp work, channel activity is measured electrically.

Data set [6] can be described thus: Apparent permeability from apical to basolateral side in MDCK-MDR1 cells monolayer at 5 uM after 60 mins by LC-MS/MS analysis. The settings on record: dog.
A short description of data set [7]: Apparent permeability from basolateral to apical side in MDCK-MDR1 cells monolayer at 5 uM after 60 mins by LC-MS/MS analysis. Particulars: dog.
The nature of data set [8]: Efflux ratio of apparent permeability from basolateral to apical over apical to basolateral side in MDCK-MDR1 cells at 5 uM after 60 mins by LC-MS/MS analysis. The settings on record: dog.
Another data set has as its target T4, Cytochrome P450 1A2 (Homo sapiens, UniProt P05177).
T4 sequence (P05177 whole entry): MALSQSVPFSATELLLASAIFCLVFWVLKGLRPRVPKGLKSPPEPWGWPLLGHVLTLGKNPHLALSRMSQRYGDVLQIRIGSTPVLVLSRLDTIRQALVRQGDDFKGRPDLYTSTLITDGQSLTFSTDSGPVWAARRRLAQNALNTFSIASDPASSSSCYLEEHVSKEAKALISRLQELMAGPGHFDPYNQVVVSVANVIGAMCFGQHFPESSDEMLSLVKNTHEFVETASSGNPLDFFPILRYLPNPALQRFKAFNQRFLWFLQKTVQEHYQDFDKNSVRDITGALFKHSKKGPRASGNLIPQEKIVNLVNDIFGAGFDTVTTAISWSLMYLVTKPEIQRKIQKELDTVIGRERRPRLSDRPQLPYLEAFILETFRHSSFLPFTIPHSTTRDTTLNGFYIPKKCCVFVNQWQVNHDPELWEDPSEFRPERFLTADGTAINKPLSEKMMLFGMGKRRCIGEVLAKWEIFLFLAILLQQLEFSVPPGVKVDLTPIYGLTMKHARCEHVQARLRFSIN
The data set can be described thus: Inhibition of CYP1A2 in human liver microsomes using phenacetin as substrate measured after 10 mins in presence of NADPH by LC-MS/MS analysis.

The next data set has as its target Cytochrome P450 2C9 (Homo sapiens, UniProt P11712). The data set can be described thus: Inhibition of CYP2C9 in human liver microsomes using diclofenac as substrate measured after 10 mins in presence of NADPH by LC-MS/MS analysis.
A further data set addresses Cytochrome P450 2C19 (Homo sapiens, UniProt P33261). The data set can be described thus: Inhibition of CYP2C19 in human liver microsomes using S-mephenytoin as substrate measured after 10 mins in presence of NADPH by LC-MS/MS analysis.
In a further data set the target is Cytochrome P450 2D6 (Homo sapiens, UniProt P10635). The data set can be described thus: Inhibition of CYP2D6 in human liver microsomes using dextromethorphan as substrate measured after 10 mins in presence of NADPH by LC-MS/MS analysis.
Sequence of Cytochrome P450 2D6 (P10635 whole entry): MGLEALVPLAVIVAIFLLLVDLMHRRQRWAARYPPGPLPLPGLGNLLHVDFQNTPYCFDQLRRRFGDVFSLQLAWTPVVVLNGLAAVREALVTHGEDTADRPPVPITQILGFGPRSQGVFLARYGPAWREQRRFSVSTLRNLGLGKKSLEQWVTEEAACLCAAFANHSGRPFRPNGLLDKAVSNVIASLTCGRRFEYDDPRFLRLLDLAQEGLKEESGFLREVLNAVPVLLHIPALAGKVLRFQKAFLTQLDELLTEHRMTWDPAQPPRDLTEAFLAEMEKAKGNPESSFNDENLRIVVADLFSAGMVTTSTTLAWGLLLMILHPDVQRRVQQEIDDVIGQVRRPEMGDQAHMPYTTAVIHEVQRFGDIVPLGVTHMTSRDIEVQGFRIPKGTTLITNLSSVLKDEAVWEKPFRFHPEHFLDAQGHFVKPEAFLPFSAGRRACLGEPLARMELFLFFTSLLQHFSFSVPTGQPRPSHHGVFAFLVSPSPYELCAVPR
The target of the next data set is Cytochrome P450 3A4 (Homo sapiens, UniProt P08684). The data set can be described thus: Inhibition of CYP3A4 in human liver microsomes using midazolam as substrate measured after 7 mins in presence of NADPH by LC-MS/MS analysis.
Sequence of Cytochrome P450 3A4 (P08684 whole entry): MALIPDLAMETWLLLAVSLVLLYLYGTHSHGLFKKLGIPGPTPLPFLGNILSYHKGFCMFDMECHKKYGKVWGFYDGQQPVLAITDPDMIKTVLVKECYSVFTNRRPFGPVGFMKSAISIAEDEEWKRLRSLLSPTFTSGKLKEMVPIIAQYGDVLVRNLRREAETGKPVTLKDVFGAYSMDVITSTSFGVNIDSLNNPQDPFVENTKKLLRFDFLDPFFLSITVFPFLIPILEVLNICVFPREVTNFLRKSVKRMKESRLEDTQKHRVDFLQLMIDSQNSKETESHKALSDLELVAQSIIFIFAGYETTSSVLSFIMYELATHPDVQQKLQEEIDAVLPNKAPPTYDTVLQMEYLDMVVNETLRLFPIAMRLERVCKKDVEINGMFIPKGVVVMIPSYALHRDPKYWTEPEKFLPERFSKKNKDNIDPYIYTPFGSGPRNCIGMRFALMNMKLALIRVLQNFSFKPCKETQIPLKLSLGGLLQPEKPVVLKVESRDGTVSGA

Sequence of Cytochrome P450 2C19 (P33261 whole entry): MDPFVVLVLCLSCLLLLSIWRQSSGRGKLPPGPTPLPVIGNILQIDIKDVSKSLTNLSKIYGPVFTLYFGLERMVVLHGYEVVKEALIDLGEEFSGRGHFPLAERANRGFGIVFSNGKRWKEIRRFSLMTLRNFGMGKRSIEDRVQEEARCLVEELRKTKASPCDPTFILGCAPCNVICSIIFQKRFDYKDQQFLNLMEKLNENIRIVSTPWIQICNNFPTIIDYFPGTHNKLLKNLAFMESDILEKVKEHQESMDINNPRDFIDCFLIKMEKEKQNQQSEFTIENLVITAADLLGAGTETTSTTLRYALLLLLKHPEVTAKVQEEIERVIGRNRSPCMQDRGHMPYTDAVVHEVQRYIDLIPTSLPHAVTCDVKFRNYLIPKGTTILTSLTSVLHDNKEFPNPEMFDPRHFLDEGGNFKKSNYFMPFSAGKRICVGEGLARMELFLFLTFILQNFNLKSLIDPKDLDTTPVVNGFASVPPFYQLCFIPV
Sequence of Cytochrome P450 2C9 (P11712 whole entry): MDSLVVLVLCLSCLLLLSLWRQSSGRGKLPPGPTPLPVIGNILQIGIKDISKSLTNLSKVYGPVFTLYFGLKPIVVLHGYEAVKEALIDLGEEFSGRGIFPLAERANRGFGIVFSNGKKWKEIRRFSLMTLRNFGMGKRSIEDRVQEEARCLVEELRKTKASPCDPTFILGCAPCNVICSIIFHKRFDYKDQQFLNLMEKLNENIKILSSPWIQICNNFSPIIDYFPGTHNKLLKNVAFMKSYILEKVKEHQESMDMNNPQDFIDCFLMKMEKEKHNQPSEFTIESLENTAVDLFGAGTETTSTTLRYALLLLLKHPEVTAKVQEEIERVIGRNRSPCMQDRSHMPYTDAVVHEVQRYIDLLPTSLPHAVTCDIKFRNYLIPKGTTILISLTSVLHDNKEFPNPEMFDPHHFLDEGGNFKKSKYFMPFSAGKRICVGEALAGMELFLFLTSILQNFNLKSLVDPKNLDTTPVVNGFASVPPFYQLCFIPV
Sequence of Voltage-gated inwardly rectifying potassium channel KCNH2 (Q12809 whole entry): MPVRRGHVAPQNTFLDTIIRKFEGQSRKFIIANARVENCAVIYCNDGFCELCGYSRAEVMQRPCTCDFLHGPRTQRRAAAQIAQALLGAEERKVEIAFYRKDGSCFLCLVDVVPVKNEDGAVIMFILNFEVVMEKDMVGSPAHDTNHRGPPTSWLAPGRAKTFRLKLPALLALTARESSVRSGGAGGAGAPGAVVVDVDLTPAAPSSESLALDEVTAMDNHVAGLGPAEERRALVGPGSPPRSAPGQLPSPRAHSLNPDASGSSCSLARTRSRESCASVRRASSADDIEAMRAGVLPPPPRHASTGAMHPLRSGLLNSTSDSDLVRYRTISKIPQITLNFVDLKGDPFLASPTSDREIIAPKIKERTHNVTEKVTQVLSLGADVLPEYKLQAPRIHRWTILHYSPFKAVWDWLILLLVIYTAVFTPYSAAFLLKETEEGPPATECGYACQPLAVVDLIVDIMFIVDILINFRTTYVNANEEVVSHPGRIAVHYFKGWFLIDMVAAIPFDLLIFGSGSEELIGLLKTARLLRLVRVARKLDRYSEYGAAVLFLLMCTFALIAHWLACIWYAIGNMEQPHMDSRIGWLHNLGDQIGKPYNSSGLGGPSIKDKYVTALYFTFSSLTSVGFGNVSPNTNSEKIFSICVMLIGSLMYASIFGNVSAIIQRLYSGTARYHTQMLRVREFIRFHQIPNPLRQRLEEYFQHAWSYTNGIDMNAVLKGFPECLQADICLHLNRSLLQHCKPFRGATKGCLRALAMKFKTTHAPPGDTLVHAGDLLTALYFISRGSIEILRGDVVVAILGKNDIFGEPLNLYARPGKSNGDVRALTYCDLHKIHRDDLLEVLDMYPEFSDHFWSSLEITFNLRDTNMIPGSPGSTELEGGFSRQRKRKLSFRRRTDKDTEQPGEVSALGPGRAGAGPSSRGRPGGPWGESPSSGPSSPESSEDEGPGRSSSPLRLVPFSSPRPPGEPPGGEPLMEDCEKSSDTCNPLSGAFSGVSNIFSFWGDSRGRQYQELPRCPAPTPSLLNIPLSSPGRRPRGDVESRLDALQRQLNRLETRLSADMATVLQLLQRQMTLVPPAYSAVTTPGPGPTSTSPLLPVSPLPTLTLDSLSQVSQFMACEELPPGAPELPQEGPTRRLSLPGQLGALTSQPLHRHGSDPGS

In the case of `Cc1cc(-n2cc3c(n2)CN(C(=O)c2cc(S(C)(=O)=O)ccc2N2CCC(F)(F)CC2)C3)ccn1`, the IC50 (commonly the point on the concentration scale where inhibition reaches its midpoint) in data set [1] is 7 nM; in data set [2], 4 nM; in data set [3] it was above 10000 nM.
Consider `CC(C)Oc1ccc(C#N)cc1C(=O)N1Cc2cn(-c3ccccc3)nc2C1`, for which the IC50 is 105 nM in data set [1], 161 nM in data set [2] and above 10000 nM in data set [3].
For `Cc1cc(-n2cc3c(n2)CN(C(=O)c2cc(C#N)ccc2O[C@@H](C)C(F)(F)F)C3)ccn1`, in that order: 18 nM, 27 nM and above 10000 nM.
Regarding `CS(=O)(=O)c1ccc(N2CCC(F)(F)CC2)c(C(=O)N2Cc3cn(-c4cncc(F)c4)nc3C2)c1`, the IC50 was 10 nM in [2] and above 10000 nM in [3].
`Cc1cc(-n2cc3c(n2)CN(C(=O)c2cc(C#N)ccc2N2CCC(F)(F)CC2)C3)ccn1`: the IC50 in data set [2] was 4 nM; in data set [3], above 10000 nM.
Turning to `CC(C)Oc1ccc(C#N)cc1C(=O)N1Cc2cn(-c3cncc(F)c3)nc2C1`, the half-inhibitory concentration (IC50) in data set [1] was 113 nM; in data set [2], 183 nM; in data set [3], above 10000 nM.
As for `CCS(=O)(=O)c1ccc(O[C@@H](C)C(F)(F)F)c(C(=O)N2Cc3cn(-c4ccccc4F)nc3C2)c1`, the IC50 in data set [1] is 29 nM; in data set [2], 9 nM; in [5], above 10000 nM; in data set [3], above 10000 nM; at Cytochrome P450 1A2, above 10000 nM; on Cytochrome P450 2C9 it was above 10000 nM. In addition, the IC50 on Cytochrome P450 2C19, at Cytochrome P450 2D6 and on Cytochrome P450 3A4 was above 10000 nM in each case. Besides, the microsomal CLint at 1 µM in [4] is 0.9 µL/min/mg. Moreover, the Papp A→B (commonly the apparent permeability from the apical to the basolateral side of a cell layer) at 1 h, 5 µM in data set [6] worked out at 18 ×10⁻⁶ cm/s. The Papp B→A (usually how fast a substance crosses the layer from the basolateral side) at 1 h, 5 µM in data set [7] turned out to be 51.9 ×10⁻⁶ cm/s. For the same compound, in data set [8], the efflux ratio (commonly a quotient of directional permeabilities that is used to spot active efflux) at 1 h, 5 µM turned out to be 2.9.
As to `Cc1cc(-n2cc3c(n2)CN(C(=O)c2cc(C#N)ccc2-c2cccc(F)c2)C3)ccn1`, the IC50 in data set [1] was 55 nM; in data set [2], 78 nM; in data set [3], above 10000 nM.
For the compound `CC(C)Oc1ccc(S(C)(=O)=O)cc1C(=O)N1Cc2cn(-c3ccccc3F)nc2C1`, the IC50 in [1] is 23 nM; in data set [2] it was 18 nM; in [3] it was above 10000 nM.
The corresponding values for `CCS(=O)(=O)c1ccc(O[C@@H](C)C(F)(F)F)c(C(=O)N2Cc3cn(-c4ccnc(C)c4)nc3C2)c1` are 12 nM, 4 nM and above 10000 nM.
Consider `Cc1cccc(-n2cc3c(n2)CN(C(=O)c2cc(S(C)(=O)=O)ccc2O[C@@H](C)C(F)(F)F)C3)c1`, for which the IC50 in data set [1] was 23 nM; in data set [2], 12 nM; in data set [3] it was above 10000 nM.
Consider `N#Cc1ccc(-c2cccc(F)c2)c(C(=O)N2Cc3cn(-c4cncc(F)c4)nc3C2)c1`, for which the half-maximal inhibitory concentration (IC50) in [2] is 619 nM; in data set [3] it was above 10000 nM.
Regarding `CS(=O)(=O)c1ccc(-c2cccc(F)c2)c(C(=O)N2Cc3cn(-c4ccccc4F)nc3C2)c1`, the IC50 in [1] is 10 nM; in data set [2], 12 nM; in data set [3] it was above 10000 nM.
Turning to `Cc1cc(-n2cc3c(n2)CN(C(=O)c2cc(S(C)(=O)=O)ccc2O[C@@H](C)C(F)(F)F)C3)ccn1`, the IC50 in [1] was 12 nM; in [2], 3 nM; in data set [3], above 10000 nM.
For `CS(=O)(=O)c1ccc(-c2cccc(F)c2)c(C(=O)N2Cc3cn(-c4cncc(F)c4)nc3C2)c1`, in that order: 6 nM, 10 nM and above 10000 nM.
The corresponding values for `Cc1cc(-n2cc3c(n2)CN(C(=O)c2cc(S(C)(=O)=O)ccc2-c2cccc(F)c2)C3)ccn1` are 4 nM, 2 nM and above 10000 nM.
As to `CS(=O)(=O)c1ccc(N2CCC(F)(F)CC2)c(C(=O)N2Cc3cn(-c4ccccc4F)nc3C2)c1`, the IC50 was 12 nM in data set [2] and above 10000 nM in data set [3].
`C[C@H](Oc1ccc(C#N)cc1C(=O)N1Cc2cn(C3CCCC3)nc2C1)C(F)(F)F`: the results for the IC50 in [1] and in [2] were 210 nM and 331 nM, respectively.
